Laboratory results reported in patent publication US7132420B2, “Aspartic protease inhibitors” (The United States of America as represented by the …, priority 1999, dated 2006).
Like-named read-outs stand apart in the source and are kept apart here.

Experiments:
[1] = system: HIV-1; experiment: HIV antiviral assay (EC50); type: cell-based; details: Table 1
Source text: The HIV protease assay was done according to the protocol described in Kageyama et al, Antimicrob. Agents Chemother., 37, 272 (1993). The HIV antiviral assay was done according to the protocol described in Weislow et al., J. National Cancer Inst. 81, 577 (1989).

[2] = molecular target: HIV-1 protease (Human immunodeficiency virus type 1 group M subtype B, UniProt P04585); experiment: HIV protease assay (Ki); type: biochemical
Source text: (§1) This example illustrates the HIV-1 protease inhibition activity (Ki), HIV-1 antiviral data (EC50), and the toxicity against normal cells (IC50), for particular compounds of formula (I). The HIV protease assay was done according to the protocol described in Kageyama et al, Antimicrob. Agents Chemother., 37, 272 (1993). The HIV antiviral assay was done according to the protocol described in Weislow et al., J. National Cancer Inst. 81, 577 (1989).
(§2) The HIV protease assay was done according to the protocol described in Example 35. The plasmepsin II assay was done according to the protocol used in Silva et al., Proc. Nat. Acad. Sci. USA, 93, pp. 10034–10039, September 1996 (Biochemstry). The cathepsin D assay was done according to the protocol described in Gulnik et al., FEBS Letters, 413, 379–384 (1997). The compounds illustrated in Table 2 are of the general formula (II), as described in Example 35.

[3] = system: normal cells; experiment: toxicity against normal cells (IC50); type: cell-based; details: Table 1
Source text: as §1

[4] = molecular target: plasmepsin II (Plasmodium falciparum, UniProt P46925); experiment: biochemical; type: biochemical; details: Table 2; read-out: Pls II Ki
plasmepsin II, sequence (P46925 125-453): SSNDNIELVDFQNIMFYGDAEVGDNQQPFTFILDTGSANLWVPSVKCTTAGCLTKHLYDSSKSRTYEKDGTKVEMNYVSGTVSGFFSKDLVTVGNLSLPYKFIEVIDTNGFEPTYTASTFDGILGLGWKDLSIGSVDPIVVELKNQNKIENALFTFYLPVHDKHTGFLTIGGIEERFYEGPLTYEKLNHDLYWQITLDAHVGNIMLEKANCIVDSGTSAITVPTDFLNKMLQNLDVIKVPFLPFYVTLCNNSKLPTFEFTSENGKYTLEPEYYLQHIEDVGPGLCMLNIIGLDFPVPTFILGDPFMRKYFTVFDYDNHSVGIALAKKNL
Source text: as §2

[5] = Table 1, in nM, read-out: HIV-1 Ki

Compound: CC(=O)N[C@H](C(=O)N[C@@H](CC(C)C)C[C@H](O)[C@H](Cc1ccccc1)NC(=O)COc1c(C)cccc1C)C(C)C [(50)]
- EC50 [1]: 300 nM
- Ki ([2]; Table 1, read-out: HIV-1 Ki): 0.014 nM
- IC50 [3]: > 100000 nM

Compound: Cc1cccc(C)c1OCC(=O)N[C@@H](Cc1ccccc1)[C@@H](O)C[C@H](CC(C)C)NC(=O)[C@@H](NS(C)(=O)=O)C(C)C [(51), (2S,3S,5S)-2-[N-[2-(2,6-dimethylphenoxy)acetyl]amino]-5-[N-[[N′-(methylsulfonyl)]valinyl]amino]-3-hydroxy-7-methyl-1-phenyloctane]
- EC50 [1]: 700 nM
- Ki ([2]; Table 1, read-out: HIV-1 Ki): 0.034 nM
- IC50 [3]: > 100000 nM

Compound: COc1ccc(C(=O)N[C@H](C(=O)N[C@@H](CC(C)C)C[C@H](O)[C@H](Cc2ccccc2)NC(=O)COc2c(C)cccc2C)C(C)C)cc1 [(52), (2S,3S,5S)-2-[N-[2-(2,6.-dimethylphenoxy)acetyl]amino]-5-[N-[[N′-(p-methoxyphenylcarbonyl)]valinyl]amino]-3-hydroxy-7-methyl-1-phenyloctane]
- EC50 [1]: 200 nM
- Ki ([2]; Table 1, read-out: HIV-1 Ki): 0.03 nM
- IC50 [3]: > 93000 nM

Compound: CC(C)(C)OC(=O)N[C@@H](Cc1ccccc1)C[C@H](O)[C@H](Cc1ccccc1)NC(=O)OCc1ccccc1 [(53), reference compound]
- EC50 [1]: > 10000 nM
- Ki [2, 5]: 1 nM
- IC50 [3]: > 100000 nM

Compound: COc1ccc(S(=O)(=O)N[C@H](C(=O)N[C@@H](CC(C)C)C[C@H](O)[C@H](Cc2ccccc2)NC(=O)COc2c(C)cccc2C)C(C)C)cc1 [(54)]
- EC50 [1]: 200 nM
- Ki ([2]; Table 1, read-out: HIV-1 Ki): 0.0068 nM
- IC50 [3]: 84000 nM

Compound: Cc1cccc(C)c1OCC(=O)N[C@@H](Cc1ccccc1)[C@@H](O)C[C@H](CC(C)C)NC(=O)CC(C)C [(55)]
- EC50 [1]: 10000 nM
- Ki [2, 5]: 1.5 nM
- IC50 [3]: > 100000 nM

Compound: Cc1cccc(C)c1OCC(=O)N[C@@H](Cc1ccccc1)[C@@H](O)C[C@H](CC(C)C)NC(=O)[C@H](C)NC(=O)OCc1ccccc1 [(56), (2S,3S,5S)-5-[N-[N′-(benzyloxycarbonyl)alaninyl]amino]-2-[N-[2-(2,6-dimethylphenoxy)acetyl]amino]-3-hydroxy-7-methyl-1-phenyloctane]
- EC50 [1]: 1000 nM
- Ki ([2]; Table 1, read-out: HIV-1 Ki): 0.195 nM
- IC50 [3]: > 100000 nM

Compound: Cc1cccc(C)c1OCC(=O)N[C@@H](Cc1ccccc1)[C@@H](O)C[C@H](CC(C)C)NC(=O)OCc1cncs1 [(57), (2S,3S,5S)-2-[N-[2-(2,6-dimethylphenoxy)acetyl]amino]-5-[N-[(thiazol-5-yl-methoxy)carbonyl]amino]-3-hydroxy-7-methyl-1-phenyloctane]
- EC50 ([1]; Human immunodeficiency virus 1): 1000 nM
- Ki [2]: 0.094 nM
- IC50 [3]: 10000 nM

Compound: Cc1cccc(C)c1OCC(=O)N[C@@H](Cc1ccccc1)[C@@H](O)C[C@H](CC(C)C)NC(=O)c1cccc(O)c1 [(58)]
- EC50 [1]: 2000 nM
- Ki [2, 5]: 1.2 nM
- IC50 [3]: 10000 nM

Compound: CC(C)C[C@@H](C[C@H](O)[C@H](Cc1ccccc1)NC(=O)CNC(=O)OCc1ccccc1)NC(=O)c1cccc(O)c1 [(59)]
- EC50 [1]: > 10000 nM
- Ki [2, 5]: 108 nM

Compound: CC(C)C[C@@H](C[C@H](O)[C@H](Cc1ccccc1)NC(=O)[C@H](C)NC(=O)OCc1ccccc1)NC(=O)c1cccc(O)c1 [(61)]
- EC50 [1]: > 10000 nM
- Ki [2, 5]: 2 nM

Compound: CC[C@H](C)[C@H](NC(=O)OCc1ccccc1)C(=O)N[C@@H](Cc1ccccc1)[C@@H](O)C[C@H](CC(C)C)NC(=O)c1cccc(O)c1 [(62)]
- Ki [4]: 1.2 nM
- EC50 [1]: 1400 nM
- Ki ([2]; Table 1, read-out: HIV-1 Ki): 0.157 nM
- Ki ([2]; Table 2, read-out: HIV-1 Ki): 0.157 nM
- IC50 [3]: > 10000 nM

Compound: Cc1cccc(C)c1OCC(=O)N[C@@H](Cc1ccccc1)[C@@H](O)C[C@H](CC(C)C)NC(=O)[C@H](CC(N)=O)NC(=O)c1ccc2ccccc2n1 [(65)]
- Ki ([2]; Table 1, read-out: HIV-1 Ki): 0.0382 nM

Compound: CC(C)C[C@@H](C[C@H](O)[C@H](Cc1ccccc1)NC(=O)[C@H](Cc1ccccc1)NC(=O)OCc1ccccc1)NC(=O)c1cccc(O)c1 [(67)]
- Ki [4]: 17 nM
- HIV-1 EC50 (μM) [1]: not active

Compound: Cc1cccc(C)c1OCC(=O)NC(Cc1ccccc1)C(O)CC(CC(C)C)NC(=O)C(C(C)C)N1CCCN(C)C1=O (stereo not drawn) [(68)]
- IC50 [3]: 5000 nM

Compound: CC(C)C[C@@H](C[C@H](O)[C@H](Cc1ccccc1)NC(=O)[C@@H](NC(=O)OCc1ccccc1)C(C)C)NC(=O)c1cccc(O)c1 [Compound (60)]
- Ki [4]: 2.4 nM
- EC50 [1]: 910 nM
- Ki ([2]; Table 1, read-out: HIV-1 Ki): 0.198 nM
- Ki ([2]; Table 2, read-out: HIV-1 Ki): 0.198 nM
- IC50 [3]: > 10000 nM
